Tests used:
[1] = test system: Smoothened (Smo); conditions: from the literature (Myers Dev Cell 2013; Corcoran PNAS 2006; Nachtergaele Nat Chem Bio 2012); cited from earlier work
[2] = test system: Hedgehog signalling (Gli1 mRNA); assay: Hedgehog signalling assay using quantitative RT-PCR (Gli1 mRNA in NIH/3T3 cells); type: cell-based; conditions: sterol treatment ~16 hours, different concentrations (FIG. 6, 7)
Protocol: NIH/3T3 cells were grown to confluency in Dulbecco's Modified Eagle's Medium (DMEM) containing 10% Fetal Bovine Serum (FBS, Optima Grade, Atlanta Biologicals). Confluent cells were exchanged into 0.5% FBS DMEM for 24 hours to allow ciliogenesis prior to treatment with sterols in DMEM containing 0.5% FBS for ˜16 hours. SHH protein carrying a C-terminal hexa-histidine tag was expressed in bacteria and purified as described previously [Bishop Nat Struct Mol Biol 2009]. The mRNA levels of Gli1, a direct Hh target gene commonly used as a metric for signalling strength, were measured using the Power SYBR Green Cells-To-CT kit (Thermo Fisher Scientific). The primers used are Gli1 (forward primer: 5′-[…]-3′ and reverse primer: 5′-[…]-3′), Gapdh (forward primer: 5′-[…]-3′ and reverse primer: 5′-[…]-3′). Transcript levels relative to Gapdh were calculated using the Δelta-Ct method. Each qRT-PCR experiment, which was repeated twice, included two biological replicates, each with two technical replicates.

Compound: CC(C)CCC[C@](C)(O)[C@H]1CC[C@H]2[C@@H]3CC=C4C[C@@H](O)CC[C@]4(C)[C@H]3CC[C@@]21C [20S-Hydroxycholesterol, reference compound]
- activation of Smo [1]: activate Smo in vitro

Compound: C[C@@H](CO)CCC[C@@H](C)[C@H]1CC[C@H]2[C@@H]3C(=O)C=C4C[C@@H](O)CC[C@]4(C)[C@H]3CC[C@]12C [Compound XX, 3β,26-Dihydroxycholest-5-en-7-one]
- effect on Hedgehog signalling (mRNA levels of Gli1) [2]: activator of Hedgehog signalling
- activation of Smo [1]: activators of Smo

Compound: C[C@H](CCC(=O)O)[C@H]1CC[C@H]2[C@@H]3C(=O)C=C4C[C@@H](O)CC[C@]4(C)[C@H]3CC[C@]12C [Compound XXI, 3β-Hydroxy-7-oxochol-5-en-24-oic acid]
- effect on Hedgehog signalling (mRNA levels of Gli1) [2]: inhibitor of Hedgehog signalling

Compound: C[C@H](CCCC(C)(C)O)[C@H]1CC[C@H]2[C@@H]3C(=O)C=C4C[C@@H](O)CC[C@]4(C)[C@H]3CC[C@]12C [Compound XXII, 3β,25-dihydroxycholest-5-en-7-one]
- activation of Smo [1]: activators of Smo
